Reference: the NIST ThermoML archive (doi:10.1021/je400722h)
± gives the expanded uncertainty stated by the source.

Experiment: excess molar enthalpy (molar enthalpy of mixing); xn = mol fraction of the nth substance listed
Details: 308.15 K, 101 kPa, Liquid, Power-compensation calorimetry

Cc1ccccc1Cl [2-chlorotoluene] + C1CCOCC1
Details	excess molar enthalpy [kcal/mol]
x1 = 0.0994	-0.0166 ± 0.000311
x1 = 0.1367	-0.0226 ± 0.000359
x1 = 0.1982	-0.0304 ± 0.000478
x1 = 0.2467	-0.0368 ± 0.000478
x1 = 0.3018	-0.0425 ± 0.000478
x1 = 0.3537	-0.0459 ± 0.000478
x1 = 0.3986	-0.04876 ± 0.000478
x1 = 0.4367	-0.05115 ± 0.000478
x1 = 0.4825	-0.0526 ± 0.000717
x1 = 0.5267	-0.0526 ± 0.000717
x1 = 0.5894	-0.05115 ± 0.000478
x1 = 0.6276	-0.05043 ± 0.000478
x1 = 0.6934	-0.0457 ± 0.000478
x1 = 0.7368	-0.0418 ± 0.000478
x1 = 0.7864	-0.037 ± 0.000478

Cc1ccccc1Cl [2-chlorotoluene] + C1COCCO1
Details	excess molar enthalpy [kcal/mol]
x1 = 0.0998	0.0387 ± 0.000478
x1 = 0.1643	0.0583 ± 0.000717
x1 = 0.2095	0.0676 ± 0.000717
x1 = 0.2498	0.07529 ± 0.000717
x1 = 0.3012	0.0827 ± 0.000956
x1 = 0.3567	0.0872 ± 0.000956
x1 = 0.4098	0.088 ± 0.000956
x1 = 0.4597	0.0877 ± 0.000956
x1 = 0.5088	0.0851 ± 0.000956
x1 = 0.5563	0.08078 ± 0.000717
x1 = 0.6019	0.07529 ± 0.000717
x1 = 0.6532	0.0672 ± 0.000717
x1 = 0.7067	0.0588 ± 0.000717
x1 = 0.7538	0.04924 ± 0.000478
x1 = 0.8093	0.0382 ± 0.000478
x1 = 0.8498	0.0299 ± 0.000478
x1 = 0.8932	0.0209 ± 0.000359
x1 = 0.9265	0.0144 ± 0.000311

Cc1ccccc1Cl [2-chlorotoluene] + C1COCO1
Details	excess molar enthalpy [kcal/mol]
x1 = 0.0945	0.0361 ± 0.000478
x1 = 0.1378	0.05043 ± 0.000478
x1 = 0.1987	0.066 ± 0.000717
x1 = 0.2396	0.07481 ± 0.000717
x1 = 0.2914	0.0841 ± 0.000956
x1 = 0.3467	0.0899 ± 0.000956
x1 = 0.3962	0.0937 ± 0.000956
x1 = 0.4532	0.0956 ± 0.000956
x1 = 0.4991	0.0939 ± 0.000956
x1 = 0.5432	0.0915 ± 0.000956
x1 = 0.5899	0.088 ± 0.000956
x1 = 0.6329	0.08198 ± 0.000717
x1 = 0.6923	0.07337 ± 0.000717
x1 = 0.7321	0.065 ± 0.000717
x1 = 0.8021	0.05043 ± 0.000478
x1 = 0.8492	0.0392 ± 0.000478
x1 = 0.8912	0.0292 ± 0.000478
x1 = 0.9319	0.0186 ± 0.000335
